From patent publication US20260285853A1, “COMPOUNDS AND METHODS FOR MODULATING SPLICING” (REMIX THERAPEUTICS INC., priority 2023, published 2026)

How the values were obtained:
Assay type in all cases: cell-based
[1] = test system: SH-SY5Y (human neuroblastoma) cells; assay: Cell viability, Cell Titer Glo 2.0 assay; conditions: read-out: Viability SHSY5Y.3 GI50
Method in brief: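 Toxicity screen in SH-SY5Y cells. Compounds were serially diluted in DMSO and then in medium, giving 0.1% DMSO final. Viability was read with CellTiter-Glo 2.0 after 72 h at 37 °C, 5% CO2, against medium-only blank wells.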

[2] = test system: HTT mRNA; assay: Splicing RT-qPCR assay (THP), Table 2A
[3] = test system: MYB mRNA; assay: Splicing RT-qPCR assay (THP), Table 2A
[4] = test system: MYB mRNA; assay: Splicing RT-qPCR assay, canonical (CJ) and alternative (AJ) junction mRNA, K562 cells; conditions: Homo sapiens, K562.3 cells, 24 hours; for AC50: read-out: MYB AJ (AC50, increase in AJ mRNA); for IC50: read-out: MYB CJ (IC50, decrease in CJ mRNA)
Method in brief: (§1)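 K562 cells were treated for 24 h at 37 °C with an 11-point 3-fold dilution series (top 10 uM final, DMSO ≤0.25%), then lysed for one-step RT-qPCR of canonical and alternative junctions. ΔΔCt was taken against GAPDH or GUSB and DMSO, converted to RQ by 2^(−ΔΔCt), then to % response.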

[5] = test system: HTT mRNA; assay: as above; conditions: Homo sapiens, K562.3 cells, 24 hours; for AC50: read-out: HTT AJ (AC50, increase in AJ mRNA); for IC50: read-out: HTT CJ (IC50, decrease in CJ mRNA)
Method in brief: as §1

[6] = Table 2A (THP), AJ mRNA increase, read-out: HTT AJ (increase in alternative junction mRNA, AC50)
[7] = Table 2A (THP), CJ mRNA decrease, read-out: HTT CJ (decrease in canonical junction mRNA, IC50)
[8] = Table 2A (THP), AJ mRNA increase, read-out: MYB AJ (increase in alternative junction mRNA, AC50)
[9] = Table 2A (THP), CJ mRNA decrease, read-out: MYB CJ (decrease in canonical junction mRNA, IC50)

SMILES | GI50 [1] [nM] | AC50 [2, 6] [nM] | IC50 [2, 7] [nM] | AC50 [3, 8] [nM] | IC50 [3, 9] [nM] | AC50 [4] [nM] | IC50 [4] [nM] | AC50 [5] [nM] | IC50 [5] [nM] | AC50 ([2]; Table 2A, THP, HTT alternative junction (AJ) mRNA, read-out: HTT AJ (AC50, increase in alternative junction mRNA)) [nM] | IC50 ([2]; Table 2A, THP, HTT canonical junction (CJ) mRNA, read-out: HTT CJ (IC50, decrease in canonical junction mRNA)) [nM] | AC50 ([3]; Table 2A, THP, MYB alternative junction (AJ) mRNA, read-out: MYB AJ (AC50, increase in alternative junction mRNA)) [nM] | IC50 ([3]; Table 2A, THP, MYB canonical junction (CJ) mRNA, read-out: MYB CJ (IC50, decrease in canonical junction mRNA)) [nM]
CN[C@@H]1C[C@@H](C)N(c2ccc(C(=O)Nc3cc(F)c4nc(C)cn4c3)c3nn(C)cc23)C1 [Compound 129, N-(8-fluoro-2-methyl-imidazo[1,2-a]pyridin-6-yl)-2-methyl-4-[(2R,4R)-2-methyl-4-(methylamino)pyrrol-idin-1-yl]indazole-7-carboxamide] | 1000 to 10000 | 1000 to 10000 | 1000 to 10000 | 100 to 1000 | < 100 | 100 to 1000 | 100 to 1000 | 1000 to 10000 | 1000 to 10000 |  |  |  | 
Cc1cn2cc(NC(=O)c3c(F)cc(N4CC[C@H](NCC56CC(CO5)C6)C4)c4cn(C)nc34)cc(F)c2n1 [Compound 157, 6-fluoro-N-(8-fluoro-2-methyl-imidazo[1,2-a]pyridin-6-yl)-2-methyl-4-[(3S)-3-(2-oxabicyclo[2.1.1]hexan-1-ylmethylamino)pyrrolidin-1-yl]indazole-7-carboxamide] | 1000 to 10000 | > 10000 | > 10000 | < 100 | < 100 | < 100 | 100 to 1000 | > 10000 | > 10000 |  |  |  | 
CCNC1CCN(c2ccc(C(=O)Nc3cc(C)c4nc(C)cn4n3)c3nn(C)cc23)CC1 [Compound 186, N-(2,8-dimethylimidazo [1,2-b]pyridazin-6-yl)-4-[4-(ethylamino)-1-piperidyl]-2-methyl-indazole-7-carboxamide] | 100 to 1000 | 100 to 1000 | 100 to 1000 | 100 to 1000 | 100 to 1000 | 100 to 1000 | 100 to 1000 | 100 to 1000 | 100 to 1000 |  |  |  | 
CCNC1CCN(c2ccc(C(=O)Nc3cc(F)c4nc(CC)cn4c3)c3nn(C)cc23)CC1 [Compound 201, 4-[4-(ethylamino)-1-piperidyl]-N-(2-ethyl-8-fluoro-imidazo[1,2-a]pyridin-6-yl)-2-methyl-indazole-7-carboxamide] | 1000 to 10000 | 1000 to 10000 | 1000 to 10000 | 1000 to 10000 | 1000 to 10000 | 1000 to 10000 | 1000 to 10000 | 1000 to 10000 | 1000 to 10000 |  |  |  | 
CNC1(C)CCN(c2ccc(C(=O)Nc3cn4cc(C)nc4c(OC)n3)c3nn(C)cc23)CC1 [Compound 197, N-(8-methoxy-2-methylimidazo[1,2-a]pyrazin-6-yl)-2-methyl-4-(4-methyl-4-(methylamino)piperidin-1-yl)-2H-indazole-7-carboxamide] | < 100 | < 100 | < 100 | < 100 | < 100 | < 100 | < 100 | < 100 | < 100 |  |  |  | 
Cc1cn2cc(NC(=O)c3c(O)cc(N4CC[C@@H](NC5CC5)C4)c4cn(C)nc34)cc(F)c2n1 [Compound 288, 4-[(3R)-3-(cyclopropylamino)-pyr-rolidin-1-yl]-N-(8-fluoro-2-methyl-imidazo[1,2-a]pyridin-6-yl)-6-hydroxy-2-methyl-indazole-7-carboxamide] | 100 to 1000 | > 10000 | > 10000 | < 100 | < 100 | < 100 | < 100 | > 10000 | > 10000 |  |  |  | 
Cc1cn2cc(NC(=O)c3ccc(N4C[C@@H](C)N[C@@H](C)C4)c4[nH]cnc34)cc(F)c2n1 [Compound 220, 7-[(3R,5S)-3,5-dimethylpiperazin-1-yl]-N-(8-fluoro-2-methyl-imidazo[1,2-a]pyridin-6-yl)-1H-1,3-benzodiazole-4-carboxamide] | 1000 to 10000 | 1000 to 10000 | > 10000 | 100 to 1000 | 100 to 1000 | 100 to 1000 | 100 to 1000 | > 10000 | 1000 to 10000 |  |  |  | 
Cc1nc2c(F)cc(NC(=O)c3ccc(N4CCC(NC5CC5)CC4)c4cn(C)nc34)cn2c1C [Compound 189, 4-[4-(cyclopropylamino)-1-piperidyl]-N-(8-fluoro-2,3-dimethyl-imidazo[1,2-a]pyridin-6-yl)-2-methyl-indazole-7-carboxamide] | 100 to 1000 | 100 to 1000 | > 10000 | > 10000 | > 10000 | > 10000 | > 10000 | > 10000 | > 10000 |  |  |  | 
Cc1cn2cc(NC(=O)c3ccc(N4CCC(NC5CC56CC6)CC4)c4cn(C)nc34)cc(F)c2n1 (stereo not drawn) [Compound 203, N-(8-fluoro-2-methyl-imidazo[1,2-a]-pyridin-6-yl)-2-methyl-4-[4-(spiro[2.2]pentan-2-ylamino)-1-piperidyl] indazole-7-carboxamide] | 100 to 1000 | 100 to 1000 | 100 to 1000 | < 100 | < 100 | < 100 | < 100 | 1000 to 10000 | 100 to 1000 |  |  |  | 
Cc1cn2cc(NC(=O)c3ccc(N4CCC(NC5CC5)CC4)c4cc(C)nn34)cc(F)c2n1 [Compound 209, 4-[4-(cyclopropylamino)-1-piperidyl]-N-(8-fluoro-2-methyl-imidazo[1,2-a]pyridin-6-yl)-2-methyl-pyrazolo[1,5-a]pyridine-7-carboxamide] | < 100 | 100 to 1000 | 100 to 1000 | < 100 | < 100 | < 100 | < 100 | 100 to 1000 | 100 to 1000 |  |  |  | 
Cc1cn2cc(NC(=O)c3ccc(N4CCC(NC5CC5)CC4)c4cn(C)nc34)nc2c(C)n1 [Compound 297, 4-[4-(cyclopropylamino)-1-piperidyl]-N-(6,8-dimethylimidazo[1,2-a]pyrazin-2-yl)-2-methyl-indazole-7-carboxamide] | 1000 to 10000 | > 10000 | > 10000 | 100 to 1000 | 1000 to 10000 | 100 to 1000 | 100 to 1000 | > 10000 | > 10000 |  |  |  | 
COCC1(N[C@@H]2CCN(c3ccc(C(=O)Nc4cc(F)c5nc(C)cn5c4)c4nn(C)cc34)C2)CC1 [Compound 119, (R)—N-(8-fluoro-2-methylimidazo[1,2-a]pyridin-6-yl)-4-(3-((1-(methoxymethyl)cyclopropyl)amino)-pyrrolidin-1-yl)-2-methyl-2H-indazole-7-carboxamide] | 1000 to 10000 | > 10000 | > 10000 | 100 to 1000 | 100 to 1000 | 100 to 1000 | 100 to 1000 | > 10000 | 1000 to 10000 |  |  |  | 
COc1c(NC(=O)c2ncc(N3CCNCC3)c3cn[nH]c23)cn2cc(C)nc2c1F [Compound 606, N-(8-fluoro-7-methoxy-2-methyl-imidazo[1,2-a]pyridin-6-yl)-4-piperazin-1-yl-1H-pyrazolo[3,4-c]pyridine-7-carboxamide] | 100 to 1000 |  |  |  |  | > 10000 | > 10000 | > 10000 | > 10000 | > 10000 | > 10000 | 1000 to 10000 | 1000 to 10000
